Reference: patent publication US20150005347A1, “NITROGEN-CONTAINING HETEROCYCLIC DERIVATIVE HAVING 2-IMINO GROUP AND PEST CONTROL AGENT INCLUDING THE SAME” (MEIJI SEIKA PHARMA CO., LTD., priority 2012, published 2015)
Read-outs that look alike come from different tables or passages of the source.

Key:
Format in all cases: in vivo
Nilaparvata lugens = assay: Pest control test of Nilaparvata lugens, soil irrigation treatment; details: soil irrigation treatment
Procedure: Test Example 12 Pest Control Test of Nilaparvata lugens
(§1) A rice seedling in pot culture was subjected to soil irrigation treatment with a drug solution of the compound of the present invention at a predetermined concentration, which had been prepared so as to be a 10% acetone water. Three days after the treatment, ten second instar larvae of Nilaparvata lugens were each released thereto. Thereafter, the larvae were left to stand in a thermostatic chamber (16 hours of light period-8 hours of dark period) at 25° C. […] The test was performed in duplicate.
(§2) Mortality of larvae(%)={number of dead larvae/(number of survived larvae+number of dead larvae)}×100

[1] = test system: Trigonotylus caelestialium; assay: Pest control test of Trigonotylus caelestialium, wheat seedling dipping; details: Trigonotylus caelestialium
Source text: Test Example 8 Pest Control Test of Trigonotylus caelestialium
Wheat seedling leaves and stems four days after the dissemination of seedlings were dipped for 30 seconds in a drug solution of the compound of the present invention at a predetermined concentration, which had been prepared so as to be a 50% acetone water (0.05% Tween20 available). After an air drying process, the wheat seedling leaves and stems were placed into a glass tube, and two second instar larvae of Trigonotylus caelestialium were released to the same glass tube. After the larvae were released, the tube was lidded to leave the larvae to stand in a thermostatic chamber at 25° C. In order to supply water to the wheat during the test, water was given to the wheat from the bottom of the glass tube.
as §2

[2] = test system: Laodelphax striatella exhibiting drug resistance to fipronil; assay: Foliar spray test, Laodelphax striatella exhibiting drug resistance to fipronil; details: Laodelphax striatellus, 144 h, read-out: mortality of larvae
Procedure: Test Example 15 Pest Control Test of Laodelphax striatella
A drug solution of the compound of the present invention at a predetermined concentration, which had been prepared so as to be a 50% acetone water (0.05% Tween20 available), was foliar sprayed to a rice seedling in pot culture. […] Thereafter, the larvae were left to stand in a thermostatic chamber (16 hours of light period-8 hours of dark period) at 25° C. […] Test in duplicate.
as §2
Further, for the origin of test pests, insects of Laodelphax striatella collected outdoors within the Kumamoto prefecture in 2006 were used.

[3] = test system: imidacloprid susceptible populations of Nilaparvata lugens; assay: Soil irrigation test, imidacloprid susceptible populations of Nilaparvata lugens
Procedure: as §1, with “Three days after the treatment, ten second instar larvae of Nilaparvata lugens were each released thereto.” left out
as §2
Further, for comparison, the test against some population of Nilaparvata lugens which is highly susceptible to imidacloprid was performed by the same method as described above, and the results thereof are shown in Table 43.
Further, for the origin of test pests, bugs collected outdoors within the Kumamoto prefecture in 2007 as the drug resistant Nilaparvata lugens, and bugs collected within the Kagoshima prefecture and then successively reared indoors for a long time as the imidacloprid susceptible populations of Nilaparvata lugens were used.

[4] = test system: Haemaphysalis longicornis; assay: Pest control test of Haemaphysalis longicornis on the body surface of a dog; details: 72 h, read-out: mortality of mites
Procedure: Test Example 25 Pest Control Test of Haemaphysalis longicornis
Three petri dishes with a diameter of 9 cm and a height of 1 cm were adhered to the back of a dog. Compound 1-20 of the present invention was dissolved in ethanol so as to be 5.35 mg/mL, and the mixture was added dropwise to the body surface of the dog in the petri dish. The petri dish was sufficiently dried, and then thirty young mites of Haemaphysalis longicornis were released thereto. Each dog was housed in a cage and reared under conditions of 10 hours of light period and 14 hours of dark period at 23° C. Three days after the release, the petri dishes were detached therefrom to measure the numbers of living and dead mites and blood-sucking individuals of young mites, and the mortality of mites was calculated according to the following equation.
Mortality of mites(%)={number of dead mites/(number of survived mites+number of dead mites)}×100

[5] = test system: Laodelphax striatella exhibiting drug resistance to fipronil; assay: Soil irrigation test, Laodelphax striatella exhibiting drug resistance to fipronil
Procedure: Test Example 20 Pest Control Test of Laodelphax striatella
as §1, with “Three days after the treatment, ten second instar larvae of Nilaparvata lugens were each released thereto.” left out
as §2
In addition, for the origin of test pests, bugs collected within the Kumamoto prefecture in 2006 as the drug resistant Laodelphax striatella, and bugs successively reared indoors for a long time as the susceptible populations of Laodelphax striatella were used.

[6] = test system: Frankliniella occidentalis; assay: Pest control test of Frankliniella occidentalis, kidney bean leaf disk foliar spray; details: Frankliniella occidentalis, foliar
Source text: Test Example 7 Pest Control Test of Frankliniella occidentalis
A leaf disk having a diameter of 2.8 cm was cut out from a kidney bean in pot culture, and a drug solution of the compound of the present invention at a predetermined concentration, which had been prepared so as to be a 50% acetone water (0.05% Tween20 available), was sprayed to the leaf disk. After an air drying process, first instar larvae were released thereto. Thereafter, the larvae were left to stand in a thermostatic chamber (16 hours of light period-8 hours of dark period) at 25° C. […] Test in duplicate.
as §2

Laodelphax striatella = assay: Pest control test of Laodelphax striatella, foliar spray on rice seedling; details: Laodelphax striatellus, foliar
Procedure: Test Example 6 Pest Control Test of Laodelphax striatella
A drug solution of the compound of the present invention at a predetermined concentration, which had been prepared so as to be a 50% acetone water (0.05% Tween20 available), was foliar sprayed to a rice seedling in pot culture. After an air drying process, second instar larvae were released thereto. Thereafter, the larvae were left to stand in a thermostatic chamber (16 hours of light period-8 hours of dark period) at 25° C. […] Test in duplicate.
as §2

[7] = 72 h, read-out: mortality of larvae
[8] = read-out: % Mortality, Test Example8 Trigonotylus caelestialium
[9] = read-out: % Mortality, Test Example7 Frankliniella occidentalis

## FC(F)(F)C(=S)/N=c1\ccccn1Cc1ccc(Cl)nc1 [Compound 1-20, N-[1-((6-chloropyridin-3-yl)methyl)pyridin-2(1H)-ylidene]-2,2,2-trifluoroethanethioamide]
Nilaparvata lugens; 0.005 mg/pot
  % Mortality, Test Example 12 Nilaparvata lugens: 80%
Nilaparvata lugens; 0.01 mg/pot
  % Mortality, Test Example 12 Nilaparvata lugens: 85%
Nilaparvata lugens; 0.05 mg/pot
  % Mortality, Test Example 12 Nilaparvata lugens: 100%
[1]; [7]
  mortality at 10 ppm: ≥ 80%
  mortality at 50 ppm: ≥ 80%
[1]; [8]
  mortality at 2 ppm: 50%
  mortality at 10 ppm: 100%
  mortality at 50 ppm: 100%
[2]
  mortality at 1.25 ppm: ≥ 80%
[3]; Rate 0.01 mg/pot
  Insecticidal effects against Nilaparvata lugens (mortality of larvae %), Susceptible populations three days after the treatment: 95%
[3]; Rate 0.05 mg/pot
  Insecticidal effects against Nilaparvata lugens (mortality of larvae %), Susceptible populations three days after the treatment: 96%
[4]
  mortality at 5350 µg/mL: 100%
[5]; Rate 0.005 mg/pot, drug resistant populations
  Insecticidal effects against Laodelphax striatella (mortality of larvae %), Drug resistant populations six days after the treatment: 79%
[5]; fipronil-resistant
  insecticidal effects against drug resistant Laodelphax striatella: high insecticidal effects
[5]; fipronil-resistant vs susceptible
  mortality of larvae against drug resistant populations compared with susceptible populations of Laodelphax striatella: equivalent mortality of larvae
[6]; [7]
  mortality at 100 ppm: ≥ 80%
  mortality at 500 ppm: ≥ 80%
[6]; [9]
  mortality at 20 ppm: 50%
  mortality at 100 ppm: 80%
Laodelphax striatella; 144 h, read-out: mortality of larvae
  mortality at 1.25 ppm: ≥ 80%
Laodelphax striatella; read-out: % Mortality, Test Example6 Laodelphax striatella
  mortality at 1.25 ppm: 95%
